Measured values reported in PubChem BioAssay (NCI).
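48-hour exposure; five concentrations; linearly interpolated endpoints. Definition used: TGI = concentration required for complete inhibition of growth.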

Assays:
Test in all cases: DTP human tumour cell line panel, 48 h
[1] = system: 786-0 renal
[2] = system: A498 renal
[3] = system: A549 NSCLC
[4] = system: ACHN renal
[5] = system: BT-549 breast
[6] = system: CCRF-CEM leukemia
[7] = system: DU-145 prostate
[8] = system: EKVX NSCLC
[9] = system: HCC-2998 colon
[10] = system: HCT-116 colon
[11] = system: HCT-15 colon
[12] = system: HL-60(TB) leukemia
[13] = system: HOP-62 NSCLC
[14] = system: HOP-92 NSCLC
[15] = system: HS 578T breast
[16] = system: HT29 colon
[17] = system: IGROV1 ovarian
[18] = system: K-562 leukemia
[19] = system: KM12 colon
[20] = system: M14 melanoma
[21] = system: MALME-3M melanoma
[22] = system: MCF7 breast
[23] = system: MDA-MB-231 breast
[24] = system: MDA-MB-435
[25] = system: MOLT-4 leukemia
[26] = system: NCI-H226 lung
[27] = system: NCI-H23 lung
[28] = system: NCI-H460 lung
[29] = system: NCI/ADR-RES ovarian
[30] = system: OVCAR-3 ovarian
[31] = system: OVCAR-5 ovarian
[32] = system: OVCAR-8 ovarian
[33] = system: PC-3 prostate
[34] = system: RXF 393 renal
[35] = system: SF-268 CNS
[36] = system: SF-295 CNS
[37] = system: SF-539 CNS
[38] = system: SK-MEL-2 melanoma
[39] = system: SK-MEL-28 melanoma
[40] = system: SK-MEL-5 melanoma
[41] = system: SK-OV-3 ovarian
[42] = system: SN12C renal
[43] = system: SNB-19 CNS
[44] = system: SR leukemia
[45] = system: SW-620 colon
[46] = system: T-47D breast
[47] = system: TK-10 renal
[48] = system: U251 CNS
[49] = system: UACC-62 melanoma
[50] = system: UO-31 renal
[51] = system: CAKI-1 renal
[52] = system: COLO 205 colon
[53] = system: OVCAR-4 ovarian
[54] = system: RPMI-8226 leukemia
[55] = system: SNB-75 CNS
[56] = system: UACC-257 melanoma

Measured: TGI

Cc1ccc(C2(c3ccc(C)cc3)SC(=C(C#N)C#N)c3ccccc32)cc1
> 100 µM: [1] | [2] | [3] | [4] | [5] | [6] | [7] | [8] | [9] | [10] | [11] | [12] | [13] | [14] | [15] | [16] | [17] | [18] | [19] | [20] | [21] | [22] | [23] | [24] | [25] | [26] | [27] | [28] | [29] | [30] | [31] | [32] | [33] | [34] | [35] | [36] | [37] | [38] | [39] | [40] | [41] | [42] | [43] | [44] | [45] | [46] | [47] | [48] | [49] | [50]

O=C1Cc2c([nH]c3ccccc23)C2(CC3CCCCN13)OCCO2 (configuration not stated)
> 100 µM: [1] | [2] | [3] | [4] | [5] | [51] | [6] | [52] | [7] | [8] | [9] | [10] | [11] | [13] | [14] | [15] | [16] | [17] | [19] | [20] | [21] | [22] | [23] | [24] | [26] | [27] | [28] | [29] | [30] | [53] | [31] | [32] | [33] | [54] | [34] | [35] | [36] | [38] | [39] | [40] | [41] | [42] | [43] | [55] | [44] | [45] | [46] | [47] | [48] | [56] | [49] | [50]
